Data reported in ChEMBL document CHEMBL1150990, “Studies of the inactivation of general acyl-coa dehydrogenase by (1R)- and (1S)-(methylenecyclopropyl)acetyl-coa” (Bioorg Med Chem Lett, 1992).

What was measured:
[1] = Partition ratio of the inactivation of general acyl-CoA dehydrogenase by the compound was determined
[2] = Inactivation of general acyl-CoA dehydrogenase by the compound was determined and expressed as kinact

C=C1C[C@@H]1CC(=O)SCCNC(=O)CCNC(=O)[C@H](O)C(C)(C)COP(=O)(O)OP(=O)(O)OC[C@H]1O[C@@H](n2cnc3c(N)ncnc32)[C@H](O)[C@@H]1OP(=O)(O)O gave a Ratio [1] of 3.4 and a K inact [2] of 0.0173 s⁻¹.
C=C1C[C@H]1CC(=O)SCCNC(=O)CCNC(=O)[C@H](O)C(C)(C)COP(=O)(O)OP(=O)(O)OC[C@H]1O[C@@H](n2cnc3c(N)ncnc32)[C@H](O)[C@@H]1OP(=O)(O)O gave a Ratio [1] of 4 and a K inact [2] of 0.0163 s⁻¹.
